Data on four compounds can be found in ChEMBL document CHEMBL1201862, “PubChem BioAssay data set” (2004).

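96-well plates; 48 h exposure; 5 concentrations. Endpoints by linear interpolation between flanking doses. Not reached: highest tested concentration assigned. The concentration for 50% growth inhibition is given as GI50.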 Activity calls are given as the source filed them. Cut-off read from the data, not from the text of the source: active = GI50 up to about 1.1 µM and inactive = higher. A value given as a limit tells only on which side of the number the result lay.

Test systems include A549; CAKI-1; CCRF-CEM; DU-145; HCT-15; M14; MDA-MB-231; MDA-N; OVCAR-5; RPMI-8226; SK-MEL-28; SK-OV-3; SN12C; SR; SW-620; UACC-257; UACC-62; NCI-H226; NCI/ADR-RES; SNB-75.
What all share (test): NCI anticancer screen, dose series, 48 h

For `C[Si](C)(C)C1=C2C(=O)c3ccccc3C(=O)C2=C([Si](C)(C)C)[C@@H]2CCCC[C@H]12`, the GI50 in the assay with A549 is > 100 µM (inactive); in the assay on CAKI-1, > 100 µM (inactive); in the assay with CCRF-CEM it was > 100 µM (inactive); with DU-145, > 100 µM (inactive); in the assay with HCT-15 it was above 100 µM; in the assay with M14, > 100 µM (inactive). For the same compound, the GI50 in the assay on MDA-MB-231, with MDA-N, with OVCAR-5, in the assay with RPMI-8226, in the assay on SK-MEL-28 and with SK-OV-3 was > 100 µM (inactive) in each case. In addition, the GI50 in the assay on SN12C, in the assay on SR, in the assay with SW-620, in the assay with UACC-257 and in the assay on UACC-62 was > 100 µM (inactive) in each case.
For `Cc1cn(C2CC(O)C(Cn3nncc3Cn3cnc4c(N)ncnc43)O2)c(=O)[nH]c1=O` (configuration not stated), the GI50 in the assay on A549 was > 100 µM (inactive); with CAKI-1, > 100 µM (inactive); with CCRF-CEM, > 100 µM (inactive); in the assay with DU-145, > 100 µM (inactive); in the assay on HCT-15, above 100 µM; with M14 it was > 100 µM (inactive). Further, the GI50 with MDA-N, with NCI-H226, with NCI/ADR-RES, with OVCAR-5, in the assay with RPMI-8226 and in the assay with SK-MEL-28 was > 100 µM (inactive) each time. Also, the GI50 was > 100 µM (inactive) with SK-OV-3; > 100 µM (inactive) in the assay with SN12C; 58.3 µM (inactive) in the assay with SNB-75; > 100 µM (inactive) in the assay with SR; > 100 µM (inactive) with SW-620; > 100 µM (inactive) in the assay with UACC-257. Moreover, the GI50 in the assay with UACC-62 is > 100 µM (inactive).
As to `N#Cc1sc2c(c1O)c(=O)n(-c1ccccc1)c(=S)n2-c1ccccc1`, the GI50 with A549 is > 100 µM (inactive); in the assay on CCRF-CEM, > 10 µM (inactive); with DU-145, > 100 µM (inactive); in the assay with HCT-15, above 100 µM; in the assay on M14 it was > 100 µM (inactive); with MDA-MB-231 it was > 100 µM (inactive). In addition, the GI50 with MDA-N, with NCI-H226, in the assay on OVCAR-5, in the assay on RPMI-8226, with SK-MEL-28 and with SN12C was > 100 µM (inactive) in each case. For the same compound, the GI50 with SNB-75, in the assay with SR, in the assay on SW-620, in the assay on UACC-257 and with UACC-62 was > 100 µM (inactive) throughout.
On to `O=c1c2cn[nH]c2nc2scc(-c3ccc(Cl)cc3)n12`, for which the GI50 was > 100 µM (inactive) in the assay on A549; > 100 µM (inactive) with CAKI-1; > 100 µM (inactive) with CCRF-CEM; above 100 µM in the assay on HCT-15; > 100 µM (inactive) in the assay on M14; > 100 µM (inactive) in the assay on MDA-MB-231. In addition, the GI50 with MDA-N, in the assay with NCI-H226, with NCI/ADR-RES, in the assay with OVCAR-5, with RPMI-8226 and with SK-MEL-28 was > 100 µM (inactive) throughout. Also, the GI50 was > 100 µM (inactive) in the assay on SK-OV-3; > 100 µM (inactive) in the assay on SN12C; 16.9 µM (inactive) in the assay on SNB-75; > 100 µM (inactive) with SR; > 100 µM (inactive) with SW-620; > 100 µM (inactive) with UACC-257. The GI50 in the assay on UACC-62 was > 100 µM (inactive).
